Laboratory results taken from US9198913B2, “Nitroimidazooxazines and their uses in anti-tubercular therapy” (priority 2009, dated 2015).
Values after ≈ are worked out from the molar mass of the structure shown.

Assays:
[1] = In vivo pharmacokinetics in mice; settings: CD-1 mice, oral, 40 mg/kg; for Cmax / half-life / Kp: mouse; for Cmax / half-life: in vivo, plasma; for half-life: read-out: t½ (h) plasma (converted); for Kp: lung/plasma, read-out: AUC ratio (lung/plasma);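 for all read-outs here: plasma and lung samples quantified by LC-MS/MS, dosing as a suspension in aqueous carboxymethylcellulose with Tween 80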
[2] = Stability to human liver microsomes; assay type: in vitro ADME; settings: 1 μM, 37° C., 60 min, pooled human liver microsomes;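 note: parent compound quantified by LC-MS/MS against an internal standard, duplicates averaged, expressed relative to the 0 min sample taken as 100%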
[3] = Stability to mouse liver microsomes; assay type: in vitro ADME; settings: 1 μM, 37° C., 60 min, CD-1 mouse liver microsomes;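 note: analyte quantified by LC-MS/MS as ratio to internal standard peak area, mean of duplicates, 60 min value expressed relative to the 0 min level (100%)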
[4] = Water solubility (sonicated suspension, HPLC); assay type: physicochemical; settings: in water; for solubility at 15 min: thermodynamic from solid;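 for all read-outs here: concentration in the clear supernatant quantified by HPLC peak area against a DMSO standard solution of the same compound, corrected for dilution and injection volume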

SMILES	AUC lung [1] [µg·h/mL]	Cmax [1] [µg/mL]	half-life [1] [h]	Kp [1]	melting point [°C]	Microsomes (% remaining, 1 h) Human [2] [%]	Microsomes (% remaining, 1 h) Mouse [3] [%]	solubility at 15 min [4] [µg/mL]	Solubility [4] [µg/mL]
O=[N+]([O-])c1cn2c(n1)OC[C@@H](OCc1ccc(-c3ccc(C(F)(F)F)cn3)cc1F)C2 [Compound 14, (6S)-6-({2-Fluoro-4-[5-(trifluoromethyl)-2-pyridinyl]benzyl}oxy)-2-nitro-6,7-dihydro-5H-imidazo[2,1-b][1,3]oxazine]	148	0.44	13.9	16	233 to 235	90	77	1.2 (≈ 2.74 µM)	–
O=[N+]([O-])c1cn2c(n1)OC[C@@H](OC/C=C/c1ccc(-c3ccc(OC(F)(F)F)cc3)cc1)C2 [Compound 19, (6S)-2-Nitro-6-({(2E)-3-[4′-(trifluoromethoxy)[1,1′-biphenyl]-4-yl]-2-propenyl}oxy)-6,7-dihydro-5H-imidazo[2,1-b][1,3]oxazine]	–	–	–	–	220 to 221	100	95	–	0.50 (≈ 1.08 µM)
O=[N+]([O-])c1cn2c(n1)OC[C@@H](OCc1ccc(C#Cc3ccc(OC(F)(F)F)cc3)nc1)C2 [Compound 33, (6S)-2-Nitro-6-[(6-{[4-(trifluoromethoxy)phenyl]ethynyl}-3-pyridinyl)methoxy]-6,7-dihydro-5H-imidazo[2,1-b][1,3]oxazine]	–	–	–	–	235 to 238	–	–	–	–
O=[N+]([O-])c1cn2c(n1)OC[C@@H](Oc1ccc(-c3ccc(OC(F)(F)F)cc3)cc1)C2 [Compound 13, (6S)-2-Nitro-6-{[4′-(trifluoromethoxy)[1,1′-biphenyl]-4-yl]oxy}-6,7-dihydro-5H-imidazo[2,1-b][1,3]oxazine]	347	–	38	3.4	210	–	–	3 (≈ 7.12 µM)	–
O=[N+]([O-])c1cn2c(n1)OC[C@@H](OCc1ncc(-c3ccc(OC(F)(F)F)cc3)cn1)C2 [Compound 29, (6S)-2-Nitro-6-({5-[4-(trifluoromethoxy)phenyl]-2-pyrimidinyl}methoxy)-6,7-dihydro-5H-imidazo[2,1-b][1,3]oxazine]	–	–	–	–	223 to 226	92	87	–	8.1 (≈ 18.5 µM)
O=[N+]([O-])c1cn2c(n1)OC[C@@H](OCc1ccc(-c3ccc(OC(F)(F)F)cc3)c(F)c1)C2 [Compound 15, (6S)-6-{[2-Fluoro-4′-(trifluoromethoxy)[1,1′-biphenyl]-4-yl]methoxy}-2-nitro-6,7-dihydro-5H-imidazo[2,1-b][1,3]oxazine]	–	–	–	–	181 to 183	–	–	0.33 (≈ 0.728 µM)	–
O=[N+]([O-])c1cn2c(n1)OC[C@@H](OCc1ccc(C#Cc3ccc(C(F)(F)F)nc3)cn1)C2 [Compound 25, (6S)-2-Nitro-6-[(5-{[6-(trifluoromethyl)-3-pyridinyl]ethynyl}-2-pyridinyl)methoxy]-6,7-dihydro-5H-imidazo[2,1-b][1,3]oxazine]	–	–	–	–	226 to 227	88	91	–	–
O=[N+]([O-])c1cn2c(n1)OC[C@@H](OCc1ccc(/C=C/c3ccc(OC(F)(F)F)cc3)cc1)C2 [Compound 31, (6S)-2-Nitro-6-[(4-{(E)-2-[4-(trifluoromethoxy)phenyl]ethenyl}benzyl)oxy]-6,7-dihydro-5H-imidazo[2,1-b][1,3]oxazine]	–	–	–	–	228 to 230	99	98	–	–
O=[N+]([O-])c1cn2c(n1)OC[C@@H](OCc1ccc(C#Cc3ccc(OC(F)(F)F)cc3)cn1)C2 [Compound 18, (6S)-2-Nitro-6-[(5-{[4-(trifluoromethoxy)phenyl]ethynyl}-2-pyridinyl)methoxy]-6,7-dihydro-5H-imidazo[2,1-b][1,3]oxazine]	235	2.36	23.5	2.5	207 to 208	–	–	0.36 (≈ 0.782 µM)	–
O=[N+]([O-])c1cn2c(n1)OC[C@@H](OCc1ccn(-c3ccc(OC(F)(F)F)cc3)n1)C2 [Compound 10, (6S)-2-Nitro-6-({1-[4-(trifluoromethoxy)phenyl]-1H-pyrazol-3-yl}methoxy)-6,7-dihydro-5H-imidazo[2,1-b][1,3]oxazine]	31.5	1.51	2.4	3.5	103 to 105	87	67	–	–
O=[N+]([O-])c1cn2c(n1)OC[C@@H](OCc1ccc(-c3ccc(F)cn3)cc1)C2 [Compound 26, (6S)-6-{[4-(5-Fluoro-2-pyridinyl)benzyl]oxy}-2-nitro-6,7-dihydro-5H-imidazo[2,1-b][1,3]oxazine]	–	–	–	–	180 to 181	83	61	–	67 (≈ 181 µM)
O=[N+]([O-])c1cn2c(n1)OC[C@@H](OCc1ccc(-c3ccc(F)cc3)nc1)C2 (hydrate or solvate) [Compound 5, (6S)-6-{[6-(4-Fluorophenyl)-3-pyridinyl]methoxy}-2-nitro-6,7-dihydro-5H-imidazo[2,1-b][1,3]oxazine]	–	–	–	–	194 to 196	–	–	–	–
O=[N+]([O-])c1cn2c(n1)OC[C@@H](OCc1cnn(-c3ccc(OC(F)(F)F)cc3)c1)C2 [Compound 27, (6S)-2-Nitro-6-({1-[4-(trifluoromethoxy)phenyl]-1H-pyrazol-4-yl}methoxy)-6,7-dihydro-5H-imidazo[2,1-b][1,3]oxazine]	–	–	–	–	150 to 151	87	64	–	–
O=[N+]([O-])c1cn2c(n1)OC[C@@H](OCc1cnc(-c3ccc(OC(F)(F)F)cc3)cn1)C2 [Compound 4, (6S)-2-Nitro-6-({5-[4-(trifluoromethoxy)phenyl]-2-pyrazinyl}methoxy)-6,7-dihydro-5H-imidazo[2,1-b][1,3]oxazine]	>324	–	–	–	182 to 184	98	–	–	2.6 (≈ 5.95 µM)
O=[N+]([O-])c1cn2c(n1)OC[C@@H](OCc1ccc(-c3ccc(C(F)(F)F)nc3)cc1)C2 [Compound 9, (6S)-2-Nitro-6-({4-[6-(trifluoromethyl)-3-pyridinyl]benzyl}oxy)-6,7-dihydro-5H-imidazo[2,1-b][1,3]oxazine]	414	13.5	–	1.9	221 to 222	86	–	–	1.0 (≈ 2.38 µM)
O=[N+]([O-])c1cn2c(n1)OC[C@@H](OCc1ccc(Cc3ccc(OC(F)(F)F)cc3)cc1)C2 [Compound 17, (6S)-2-Nitro-6-({4-[4-(trifluoromethoxy)benzyl]benzyl}oxy)-6,7-dihydro-5H-imidazo[2,1-b][1,3]oxazine]	–	–	–	–	132 to 133	85	70	0.16 (≈ 0.356 µM)	–
O=[N+]([O-])c1cn2c(n1)OC[C@@H](OCc1ccc(-c3ccc(OC(F)(F)F)cc3)cn1)C2 [Compound 7, (6S)-2-Nitro-6-({5-[4-(trifluoromethoxy)phenyl]-2-pyridinyl}methoxy)-6,7-dihydro-5H-imidazo[2,1-b][1,3]oxazine]	427	25.9	–	–	157 to 159	–	–	–	–
O=[N+]([O-])c1cn2c(n1)OC[C@@H](OCc1ccc(-c3ccc(OC(F)(F)F)c(F)c3)nc1)C2 [Compound 21, (6S)-6-({6-[3-Fluoro-4-(trifluoromethoxy)phenyl]-3-pyridinyl}methoxy)-2-nitro-6,7-dihydro-5H-imidazo[2,1-b][1,3]oxazine]	251	–	13.9	1.4	–	100	90	–	3.0 (≈ 6.6 µM)
O=[N+]([O-])c1cn2c(n1)OC[C@@H](OCc1ccc(-c3ccc(OC(F)(F)F)cc3)nc1)C2 [Compound 6, (6S)-2-Nitro-6-({6-[4-(trifluoromethoxy)phenyl]-3-pyridinyl}methoxy)-6,7-dihydro-5H-imidazo[2,1-b][1,3]oxazine]	81	12.2	–	–	–	83	87	–	2.3 (≈ 5.27 µM)
O=[N+]([O-])c1cn2c(n1)OC[C@@H](OCc1ccc(-c3ccc(OC(F)(F)F)cc3)cc1)C2 [Compound 3, (6S)-2-Nitro-6-{[4′-(trifluoromethoxy)[1,1′-biphenyl]-4-yl]methoxy}-6,7-dihydro-5H-imidazo[2,1-b][1,3]oxazine]	218	–	–	–	199 to 201	–	–	–	–
O=[N+]([O-])c1cn2c(n1)OC[C@@H](OCc1ccc(C#Cc3ccc(OC(F)(F)F)cc3)cc1)C2 [Compound 32, (6S)-2-Nitro-6-[(4-{[4-(trifluoromethoxy)phenyl]ethynyl}benzyl)oxy]-6,7-dihydro-5H-imidazo[2,1-b][1,3]oxazine]	–	–	–	–	233 to 236	–	–	–	–
O=[N+]([O-])c1cn2c(n1)OC[C@@H](OCc1ccc(-c3ccc(F)cc3)nc1)C2 [Compound 5, (6S)-6-{[6-(4-Fluorophenyl)-3-pyridinyl]methoxy}-2-nitro-6,7-dihydro-5H-imidazo[2,1-b][1,3]oxazine]	136	–	–	–	–	88	80	–	3.8 (≈ 10.3 µM)
